{
  "source": "patent US5574142A",
  "about": "“Peptide linkers for improved oligonucleotide delivery” (MicroProbe Corporation, priority 1992, dated 1996)",
  "key": {"[1]": {"tested_on": "unmodified 20-mer ODN complement with the base sequence 5'-GTGACGAACATGGAGAACAT", "test": "Thermal denaturation studies (Tm of duplex with complementary ODN)", "format": "binding", "conditions": "equimolar ODN and 20-mer complement, 2 μM solutions in pH 7.2 PBS, A260, 15-85° C. at 0.5° C./min", "description": "The ODN-peptide conjugates prepared from ODN1 were further characterized by thermal denaturation studies as described in EXAMPLE III. The dissociation of duplexes formed from equimolar concentrations of the ODN1-peptide conjugates and an unmodified 20-mer ODN target were examined. The changes in absorbance at 260 nm were measured as a function of temperature and the melting temperatures (Tm) were determined. […] Therefore, amino acid residue(s) from proteolysis of the linker are, generally speaking, expected to have little effect on the biological activity of the released ODN.\nThermal Denaturation Studies (ODN1-Peptides). Thermal dissociation curves were obtained by following changes in A260 of aqueous solutions containing equimolar amounts of the particular ODN1-peptide described above and an unmodified 20-mer ODN complement with the base sequence 5'-[…] Sequence ID No.: 14. The 5'-hexylamine modified 16-mer (ODN1) was used as a control in each run. ODNs were prepared as 2 μM solutions in pH 7.2 PBS. A Gilford System 2600 UV-VIS spectrophotometer equipped with a Gilford 2527 Thermoprogrammer was used. […] Absorbance vs. time and the first derivative data were recorded automatically. […] The Tm was determined using the derivative maxima: ODN1, Tm =62.8° C.; ODN1-PEP1, Tm =61.8° C.; ODN1-PEP2, Tm =59.0° C.; […]° C."}, "trypsin": {"tested_on": "trypsin", "test": "Protease degradation studies (trypsin digestion, polyacrylamide gel electrophoresis)", "format": "biochemical", "conditions": "2 μg ODN-peptide, Tris pH 9.0, EDTA, digesting 60 min, 20% denaturing polyacrylamide gel", "text": "The model ODN-peptide conjugates were further characterized by their susceptibility to proteolysis with trypsin. (For detail see EXAMPLE IV). As is known in the art, trypsin catalyzes the hydrolysis at the carboxyl side of lysine or arginine residues in the peptides. It was found in accordance with the present invention that trypsin had no effect on the ODN as shown by polyacrylamide gel electrophoresis in FIG. 6.\nProtease Degradation Studies (ODN1-Peptides). The three ODN1-peptide conjugates (described in Table I) were characterized by treatment with trypsin. Solutions of 2 μg of the ODN-peptide in 7 μL of water were combined with 1 μL of 10x trypsin disruption solution, 1 μL of 100 mM Tris buffer (pH 9.0), and 1 μL of 100 mM EDTA. After digesting 60 min, the samples were loaded on 20% denaturing polyacrylamide gel. Electrophoresis indicated complete proteolysis of starting ODN1-peptide (see FIG. 6, lanes 1-6). Trypsin had no effect on an unmodified ODN1 control (lanes 8 and 9)."}},
  "note": "{C6NH2} = aminohexyl phosphate linker",
  "data": [
    {"substance": "H2 N--(CH2)6 --O--PO2^- -5'O--CTCCATCTTCGTCACA (5' {C6NH2}, sugars by position and backbone not given here) [ODN1, 5'-hexylamine modified 16-mer ODN complementary to initiation codon region of Hepatitis B surface antigen mRNA]", "values": [
      {"measurement": "Tm (melting temperature, derivative maxima)", "setting": "[1]", "result": 62.8, "unit": "°C"},
      {"measurement": "proteolysis by trypsin (electrophoresis)", "setting": "trypsin", "result": "no effect"}
    ]}
  ]
}
